Measurements: the NIST ThermoML archive (doi:10.1016/j.jct.2011.02.008)

Test: xn = mol fraction of the nth substance listed
Details: Liquid, Vibrating tube method

COC(=O)c1ccccc1 [methyl benzoate] + CCCCCCO
mass density [kg/m3]
Details	x1 = 0.1004	x1 = 0.2007	x1 = 0.3007	x1 = 0.4013	x1 = 0.5005	x1 = 0.6009	x1 = 0.7	x1 = 0.8008	x1 = 0.9009
328.15 K, 35000 kPa	–	–	–	–	–	–	998.9	1025.3	1051.6
328.15 K, 40000 kPa	846.3	872	898	924.1	950	976	1001.9	1028.3	1054.6
328.15 K, 45000 kPa	849.2	874.9	901	927.1	952.9	979	1004.9	1031.3	1057.6
328.15 K, 50000 kPa	852.1	877.8	903.9	930	955.8	981.9	1007.8	1034.2	1060.5
328.15 K, 55000 kPa	854.9	880.6	906.7	932.8	958.7	984.8	1010.7	1037.1	1063.3
328.15 K, 60000 kPa	857.4	883.2	908.8	935.6	960.6	987.4	1013.3	1039.6	1066.1
338.15 K, 100 kPa	810.7	836.2	862	888	913.7	939.7	965.6	992	1018.4
338.15 K, 1000 kPa	811.4	837	862.7	888.7	914.4	940.4	966.3	992.7	1019.1
338.15 K, 5000 kPa	814.9	840.4	866.1	892	917.7	943.7	969.5	996	1022.3
338.15 K, 10000 kPa	818.9	844.3	870.1	896	921.6	947.6	973.4	999.7	1026
338.15 K, 15000 kPa	822.7	848.2	873.8	899.7	925.4	951.4	977.2	1003.4	1029.7
338.15 K, 20000 kPa	826.4	851.8	877.5	903.4	929.1	955	980.7	1007	1033.3
338.15 K, 25000 kPa	829.9	855.3	881	906.9	932.5	958.5	984.2	1010.5	1036.7
338.15 K, 30000 kPa	833.3	858.7	884.4	910.3	935.9	961.8	987.5	1013.8	1040
338.15 K, 35000 kPa	836.5	862	887.7	913.6	939.2	965.1	990.8	1017.1	1043.3
338.15 K, 40000 kPa	839.7	865.1	890.9	916.8	942.4	968.3	994	1020.2	1046.4
338.15 K, 45000 kPa	842.7	868.2	894	919.9	–	–	–	–	–
